Active and inactive are the calls of the source. No cut-off for these calls is given here.
Columns and labels:
[1] = Cell viability of mouse P19 derived neurons at 1 nM by XTT reduction assay relative to control; assay type: functional
P19 = assay: Cytotoxicity against mouse P19 cells after 18 hrs; assay type: functional, cell-based; conditions: P19, 18 h
[2] = Neurotoxicity against mouse P19 derived neurons after 18 hrs; assay type: toxicity
[3] = Neuroprotective activity against paclitaxel-induced toxicity in mouse P19 derived neurons assessed as cell viability at 1 nM; assay type: functional; conditions: read-out: Activity
[4] = Therapeutic index, ratio of neurotoxic IC50 to neuroprotective activity for mouse P19 derived neurons
Mus musculus [5] = organism: Mus musculus; assay: Neuroprotective activity against vinblastine-induced toxicity in mouse P19 derived neurons assessed as cell viability at 1 nM after 18 hrs by phase contrast microscope; assay type: functional
Mus musculus [6] = organism: Mus musculus; assay: Neuroprotective activity against paclitaxel-induced toxicity in mouse P19 derived neurons assessed as cell viability at 1 nM after 18 hrs by phase contrast microscope; assay type: functional

SMILES: CCCNC1=C2C[C@@H](C)C[C@H](OC)[C@H](O)[C@@H](C)/C=C(\C)[C@H](OC(N)=O)[C@@H](OC)/C=C\C=C(/C)C(=O)NC(=C(NCCC)C1=O)C2=O
- Activity [1]: 0%

SMILES: CCOC1=C2C[C@@H](C)C[C@H](OC)[C@H](O)[C@@H](C)/C=C(\C)[C@H](OC(N)=O)[C@@H](OC)/C=C\C=C(/C)C(=O)NC(=CC1=O)C2=O
- Activity [1]: 113%
- IC50 (P19): 0.1 µM
- IC50 at 18 h [2]: 1.6 µM
- viability at 0.001 µM [3]: 100%

SMILES: CO[C@H]1/C=C\C=C(/C)C(=O)NC2=CC(=O)C(OCc3ccccc3)=C(C[C@@H](C)C[C@H](OC)[C@H](O)[C@@H](C)/C=C(\C)[C@@H]1OC(N)=O)C2=O
- Activity [1]: 111%
- IC50 (P19): 0.5 µM
- IC50 at 18 h [2]: > 10 µM
- viability at 0.001 µM [3]: 100%

SMILES: CO[C@H]1/C=C\C=C(/C)C(=O)Nc2cc(O)c(O)c(c2O)C[C@@H](C)C[C@H](OC)[C@H](O)[C@@H](C)/C=C(\C)[C@@H]1OC(N)=O
- Activity [1]: 43%

SMILES: CO[C@H]1/C=C\C=C(/C)C(=O)NC2=CC(=O)C(O)=C(C[C@@H](C)C[C@H](OC)[C@H](O)[C@@H](C)/C=C(\C)[C@@H]1OC(N)=O)C2=O
- Activity [1]: 50%

SMILES: CCCNC1=C2C[C@@H](C)C[C@H](OC)[C@H](O)[C@@H](C)/C=C(\C)[C@H](OC(N)=O)[C@@H](OC)/C=C\C=C(/C)C(=O)NC(=CC1=O)C2=O
- Activity [1]: 0%

SMILES: CNC1=C2C[C@@H](C)C[C@H](OC)[C@H](O)[C@@H](C)/C=C(\C)[C@H](OC(N)=O)[C@@H](OC)/C=C\C=C(/C)C(=O)NC(=C(NC)C1=O)C2=O
- Activity [1]: 46%

SMILES: CCNC1=C2C[C@@H](C)C[C@H](OC)[C@H](O)[C@@H](C)/C=C(\C)[C@H](OC(N)=O)[C@@H](OC)/C=C\C=C(/C)C(=O)NC(=CC1=O)C2=O
- Activity [1]: 49%

SMILES: COC1=C2C[C@@H](C)C[C@H](OC)[C@H](O)[C@@H](C)/C=C(\C)[C@H](OC(N)=O)[C@@H](OC)/C=C\C=C(/C)C(=O)NC(=CC1=O)C2=O [GELDANAMYCIN]
- Activity [1]: 121%
- selectivity ratio [4]: > 1800
- IC50 (P19): 0.1 µM
- IC50 at 18 h [2]: 1.8 µM
- viability at 0.001 µM [3]: 100%

SMILES: COC1=C2C[C@@H](C)C[C@H](OC)[C@H](O)[C@@H](C)/C=C(\C)[C@H](OC(N)=O)[C@@H](OC)/C=C\C=C(/C)C(=O)NC(=C(OC)C1=O)C2=O
- Activity [1]: 108%
- selectivity ratio [4]: > 10000
- Activity (Mus musculus [5]): Active
- IC50 (P19): > 10 µM
- Activity (Mus musculus [6]): Active
- IC50 at 18 h [2]: > 10 µM
- viability at 0.001 µM [3]: 120%

SMILES: CO[C@H]1/C=C\C=C(/C)C(=O)NC2=CC(=O)C(N)=C(C[C@@H](C)C[C@H](OC)[C@H](O)[C@@H](C)/C=C(\C)[C@@H]1OC(N)=O)C2=O
- Activity [1]: 85%

SMILES: CCCOC1=C2C[C@@H](C)C[C@H](OC)[C@H](O)[C@@H](C)/C=C(\C)[C@H](OC(N)=O)[C@@H](OC)/C=C\C=C(/C)C(=O)NC(=CC1=O)C2=O
- Activity [1]: 121%
- IC50 (P19): 0.2 µM
- IC50 at 18 h [2]: 6.7 µM
- viability at 0.001 µM [3]: 100%

SMILES: CO[C@H]1/C=C\C=C(/C)C(=O)NC2=CC(=O)C(NCc3ccccc3)=C(C[C@@H](C)C[C@H](OC)[C@H](O)[C@@H](C)/C=C(\C)[C@@H]1OC(N)=O)C2=O
- Activity [1]: 44%

SMILES: COC1=C2C[C@@H](C)C[C@H](OC)[C@H](O)[C@@H](C)/C=C(\C)[C@H](OC(N)=O)[C@@H](OC)/C=C\C=C(/C)C(=O)NC(=C(N)C1=O)C2=O
- Activity [1]: 91%

SMILES: CO[C@H]1/C=C\C=C(/C)C(=O)NC2=C(NCCCO)C(=O)C(NCCCO)=C(C[C@@H](C)C[C@H](OC)[C@H](O)[C@@H](C)/C=C(\C)[C@@H]1OC(N)=O)C2=O
- Activity [1]: 0%

SMILES: C=CCNC1=C2C[C@@H](C)C[C@H](OC)[C@H](O)[C@@H](C)/C=C(\C)[C@H](OC(N)=O)[C@@H](OC)/C=C\C=C(/C)C(=O)NC(=CC1=O)C2=O
- Activity [1]: 66%

SMILES: CCOC1=C2C[C@@H](C)C[C@H](OC)[C@H](O)[C@@H](C)/C=C(\C)[C@H](OC(N)=O)[C@@H](OC)/C=C\C=C(/C)C(=O)NC(=C(OCC)C1=O)C2=O
- Activity [1]: 0%

Source: ChEMBL document CHEMBL1139942, “Geldanamycin derivatives and neuroprotective effect on cultured P19-derived neurons” (Bioorg Med Chem Lett, 2007)
